According to ChEMBL document CHEMBL1201862, “PubChem BioAssay data set” (2004):
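Protocol summary: plate cells (96-well), add compound at 5 concentrations, incubate 48 h, interpolate endpoints linearly. Here, GI50 denotes the concentration required for 50% inhibition of growth.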 The source made the active and inactive calls. Rule as the data show it: active = GI50 up to about 1.1 µM and inactive = higher.

Columns and labels:
Assay in all cases: inhibition of tumour cell growth, NCI panel, 48 h
KM12 = system: KM12
NCI/ADR-RES = system: NCI/ADR-RES
MCF7 = system: MCF7
A549 = system: A549
EKVX = system: EKVX
OVCAR-8 = system: OVCAR-8
A498 = system: A498
MOLT-4 = system: MOLT-4
HOP-92 = system: HOP-92
MDA-MB-231 = system: MDA-MB-231
UACC-257 = system: UACC-257
RPMI-8226 = system: RPMI-8226
M14 = system: M14
SNB-75 = system: SNB-75
NCI-H522 = system: NCI-H522
LOX IMVI = system: LOX IMVI
Malme-3M = system: Malme-3M
DLD-1 = system: DLD-1
HCC 2998 = system: HCC 2998
TK-10 = system: TK-10

Measured: GI50

O=C1CCC[C@H]2O[C@@H](COC(=O)c3ccccc3)C[C@H]2O1
inactive: KM12 > 100 µM | NCI/ADR-RES > 100 µM | MCF7 > 100 µM | A549 > 100 µM | EKVX > 100 µM | OVCAR-8 > 100 µM | A498 > 100 µM | MOLT-4 > 100 µM | HOP-92 > 100 µM | MDA-MB-231 > 100 µM | UACC-257 > 100 µM | RPMI-8226 > 100 µM | M14 > 100 µM | SNB-75 > 100 µM

CN(C)C(=O)N(CCCl)N=O
inactive: KM12 > 100 µM | NCI-H522 > 100 µM | NCI/ADR-RES > 100 µM | LOX IMVI > 100 µM | MCF7 > 100 µM | A549 > 100 µM | EKVX > 100 µM | OVCAR-8 > 100 µM | Malme-3M > 100 µM | A498 > 100 µM | MOLT-4 > 100 µM | DLD-1 > 100 µM | HOP-92 > 100 µM | HCC 2998 > 100 µM | UACC-257 > 100 µM | RPMI-8226 > 100 µM | SNB-75 > 63.7 µM

CC(C)OP(=O)(OC(C)C)C1=NN(c2ccc([N+](=O)[O-])cc2)C(P(=O)(OC(C)C)OC(C)C)=NN1c1ccc([N+](=O)[O-])cc1
inactive: KM12 67.3 µM | TK-10 > 100 µM | NCI-H522 46 µM | LOX IMVI > 100 µM | A549 7.94 µM | EKVX 8.91 µM | OVCAR-8 38.1 µM | Malme-3M 72.1 µM | MOLT-4 5.19 µM | DLD-1 5.32 µM | HOP-92 7.62 µM | HCC 2998 47.2 µM | RPMI-8226 5.62 µM | M14 > 100 µM

C1=C(c2ccccc2)SC(N2CCCCC2)S1 (centres undefined)
inactive: KM12 > 100 µM | TK-10 > 100 µM | NCI-H522 66.4 µM | LOX IMVI 72.9 µM | EKVX 86.7 µM | Malme-3M 88.7 µM | A498 > 100 µM | MOLT-4 81.5 µM | DLD-1 > 100 µM | HOP-92 > 100 µM | UACC-257 > 100 µM | RPMI-8226 59.7 µM | M14 > 100 µM | SNB-75 55.6 µM

COc1ccc(/C(Cl)=C(\C=O)c2ccc(Cl)cc2)cc1
inactive: TK-10 6.15 µM | NCI-H522 2.19 µM | LOX IMVI 3.45 µM | A549 5.61 µM | EKVX 5.07 µM | OVCAR-8 4.41 µM | Malme-3M 23.3 µM | A498 30.1 µM | MOLT-4 2.63 µM | DLD-1 4.85 µM | HCC 2998 23.2 µM | UACC-257 11 µM | M14 14.1 µM | SNB-75 4.27 µM

O=C(NCCN(CCNC(=O)c1cccc(=O)n1O)CCNC(=O)c1cccc(=O)n1O)c1cccc(=O)n1O
inactive: KM12 > 100 µM | TK-10 > 100 µM | NCI-H522 > 100 µM | NCI/ADR-RES > 100 µM | MCF7 > 100 µM | A549 > 100 µM | OVCAR-8 > 100 µM | Malme-3M > 100 µM | A498 > 100 µM | HOP-92 > 100 µM | HCC 2998 > 100 µM | MDA-MB-231 > 100 µM | UACC-257 > 100 µM | RPMI-8226 > 100 µM | M14 > 100 µM | SNB-75 > 100 µM
